From the supplement of paper PMC11208160 come the findings set out here.
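Further: IS621 bridge recombinase in Escherichia coli cells against a fixed T5 target plasmid.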

The data set is described as follows: recombinant UMI read abundance after kanamycin selection (control-corrected) (log10(CPM+1)); higher = more efficient recombination; extreme values may be limits of the assay; sequences stand for … in AGTGCAGAGAAAATCGGCCAGTTTTCTCTGCCTGCAGTCCGCATGCCGTGGGACCCCTTGGGTTCTAACCTGTTGCCTAGATTTATGCAGCGGACTGCCTTTCTCCCAAAGTGATAAACCGG…AGGTTGGTTTCACT; site = the 11-nt donor. Put shortly:
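Sequenced counts of recombinant UMIs were turned into CPM, averaged across replicates and scaled with control-derived factors. The reported figure is log10(CPM+1). Those UMIs, each 12 nt long, tagged donor and donor-binding-loop pairs on a plasmid with a promoterless kanamycin gene, screened as a pool in Escherichia coli with IPTG (0.07 mM) plus kanamycin or without selection.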
As for “CCGCGTACATGGACCGGTTTTCCCGGTAATCCGTATTTGTT (site CCGCGTACTAA)”, the “recombinant UMI read abundance (log10)” value was determined as 0.0381.
Then “CCGGAAACATGGACCGGTTTTCCCGGTAATCCGTATTTGCA (site CAGGAAACTTG)”, with 0; and “CCGGAAACATGGACCGGTTTTCCCGGTAATCCGTATTTGCA (site CCGGAAACTTG)”, with 0.135.
On to “CCGGAAACATGGACCGGTTTTCCCGGTAATCCGTATTTGCA (site CGGGAAACTTG)”, for which the “recombinant UMI read abundance (log10)” value turned out to be 0.
Under “CCGGAAACATGGACCGGTTTTCCCGGTAATCCGTATTTGCA (site CTGGAAACTTG)” stands 0; under “CCGGAGTCATGGACCGGTTTTCCCGGTAATCCGTATTTGCC (site CAGGAGTCTGG)”, 0.
For “CCGGAGTCATGGACCGGTTTTCCCGGTAATCCGTATTTGCC (site CCGGAGTCTGG)”, the “recombinant UMI read abundance (log10)” value was determined as 1.55.
Under “CCGGAGTCATGGACCGGTTTTCCCGGTAATCCGTATTTGCC (site CGGGAGTCTGG)” stands 0; under “CCGGAGTCATGGACCGGTTTTCCCGGTAATCCGTATTTGCC (site CTGGAGTCTGG)”, 0; under “CCGGCAGCATGGACCGGTTTTCCCGGTAATCCGTATTTGCA (site CCGGCAGCTTG)”, 0.255.
As to “CCGGCAGCATGGACCGGTTTTCCCGGTAATCCGTATTTGTA (site CCGGCAGCTTA)”, the “recombinant UMI read abundance (log10)” value turned out to be 0.665.
Then “CCGGTACCATGGACCGGTTTTCCCGGTAATCCGTATTTGAG (site CCGGTACCTCT)”, with 0.
Regarding “CCGGTAGCATGGACCGGTTTTCCCGGTAATCCGTATTTGTG (site CCGATAGCTCA)”, the “recombinant UMI read abundance (log10)” value is 0.
As for “CCGGTAGCATGGACCGGTTTTCCCGGTAATCCGTATTTGTG (site CCGCTAGCTCA)”, the “recombinant UMI read abundance (log10)” value is 0.0271.
Then “CCGGTAGCATGGACCGGTTTTCCCGGTAATCCGTATTTGTG (site CCGGTAGCTCA)”, with 0.303.
Under “CCGGTAGCATGGACCGGTTTTCCCGGTAATCCGTATTTGTG (site CCGTTAGCTCA)” stands 0.0101; under “CCGGTCCCATGGACCGGTTTTCCCGGTAATCCGTATTTGTC (site CCGGTCCCTGA)”, 0; under “CCGGTTACATGGACCGGTTTTCCCGGTAATCCGTATTTGCT (site CCGATTACTAG)”, 0.782.
Under “CCGGTTACATGGACCGGTTTTCCCGGTAATCCGTATTTGCT (site CCGCTTACTAG)” stands 0; under “CCGGTTACATGGACCGGTTTTCCCGGTAATCCGTATTTGCT (site CCGGTTACTAG)”, 0; under “CCGGTTACATGGACCGGTTTTCCCGGTAATCCGTATTTGCT (site CCGTTTACTAG)”, 0.
Take “CCGTAAGCATGGACCGGTTTTCCCGGTAATCCGTATTTGTG (site CCGTAAGCTCA)”: the “recombinant UMI read abundance (log10)” value is 0.404.
Take “CCGTAAGCATGGACCGGTTTTCCCGGTAATCCGTATTTGTG (site CCGTCAGCTCA)”: the “recombinant UMI read abundance (log10)” value is 0.0145.
Then “CCGTAAGCATGGACCGGTTTTCCCGGTAATCCGTATTTGTG (site CCGTGAGCTCA)”, with 0.011.
Turning to “CCGTAAGCATGGACCGGTTTTCCCGGTAATCCGTATTTGTG (site CCGTTAGCTCA)”, the “recombinant UMI read abundance (log10)” value was determined as 0.0113.
Under “CCGTAGTCATGGACCGGTTTTCCCGGTAATCCGTATTTGGG (site CCGTAGTCTCC)” stands 0.0263.
Under “CCGTCTACATGGACCGGTTTTCCCGGTAATCCGTATTTGCT (site CCGTATACTAG)” stands 0; under “CCGTCTACATGGACCGGTTTTCCCGGTAATCCGTATTTGCT (site CCGTCTACTAG)”, 0.223; under “CCGTCTACATGGACCGGTTTTCCCGGTAATCCGTATTTGCT (site CCGTGTACTAG)”, 0.
“CCGTCTACATGGACCGGTTTTCCCGGTAATCCGTATTTGCT (site CCGTTTACTAG)”: the “recombinant UMI read abundance (log10)” value was 0.
With “CCGTTACCATGGACCGGTTTTCCCGGTAATCCGTATTTGTG (site CCGTTAACTCA)”, the “recombinant UMI read abundance (log10)” value was 0.00404.
Then “CCGTTACCATGGACCGGTTTTCCCGGTAATCCGTATTTGTG (site CCGTTACCTCA)”, with 0.0136; and “CCGTTACCATGGACCGGTTTTCCCGGTAATCCGTATTTGTG (site CCGTTAGCTCA)”, with 0.0116; and “CCGTTACCATGGACCGGTTTTCCCGGTAATCCGTATTTGTG (site CCGTTATCTCA)”, with 0.
Regarding “CCGTTAGCATGGACCGGTTTTCCCGGTAATCCGTATTTGCG (site CCGTTAGCTCA)”, the “recombinant UMI read abundance (log10)” value is 0.
Under “CCGTTAGCATGGACCGGTTTTCCCGGTAATCCGTATTTGCG (site CCGTTAGCTCC)” stands 0; under “CCGTTAGCATGGACCGGTTTTCCCGGTAATCCGTATTTGCG (site CCGTTAGCTCG)”, 0.184; under “CCGTTAGCATGGACCGGTTTTCCCGGTAATCCGTATTTGCG (site CCGTTAGCTCT)”, 0.0063.
Take “CCGTTCACATGGACCGGTTTTCCCGGTAATCCGTATTTGCT (site CCGTTAACTAG)”: the “recombinant UMI read abundance (log10)” value stood at 0.
As for “CCGTTCACATGGACCGGTTTTCCCGGTAATCCGTATTTGCT (site CCGTTCACTAG)”, the “recombinant UMI read abundance (log10)” value came out at 0.726.
Then “CCGTTCACATGGACCGGTTTTCCCGGTAATCCGTATTTGCT (site CCGTTGACTAG)”, with 0.
Then “CCGTTCACATGGACCGGTTTTCCCGGTAATCCGTATTTGCT (site CCGTTTACTAG)”, with 0; and “CCGTTTACATGGACCGGTTTTCCCGGTAATCCGTATTTGCA (site CCGTTTACTAG)”, with 0; and “CCGTTTACATGGACCGGTTTTCCCGGTAATCCGTATTTGCA (site CCGTTTACTCG)”, with 0.
On to “CCGTTTACATGGACCGGTTTTCCCGGTAATCCGTATTTGCA (site CCGTTTACTGG)”, for which the “recombinant UMI read abundance (log10)” value came out at 0.
Under “CCGTTTACATGGACCGGTTTTCCCGGTAATCCGTATTTGCA (site CCGTTTACTTG)” stands 0; under “CCGTTTACATGGACCGGTTTTCCCGGTAATCCGTATTTGCG (site CCGTTTACTAG)”, 0; under “CCGTTTACATGGACCGGTTTTCCCGGTAATCCGTATTTGCG (site CCGTTTACTCG)”, 0.0437.
Under “CCGTTTACATGGACCGGTTTTCCCGGTAATCCGTATTTGCG (site CCGTTTACTGG)” stands 0; under “CCGTTTACATGGACCGGTTTTCCCGGTAATCCGTATTTGCG (site CCGTTTACTTG)”, 0.
Then “CCGTTTGCATGGACCGGTTTTCCCGGTAATCCGTATTTGTG (site CCGTTAGCTCA)”, with 0.00545.
Turning to “CCGTTTGCATGGACCGGTTTTCCCGGTAATCCGTATTTGTG (site CCGTTCGCTCA)”, the “recombinant UMI read abundance (log10)” value came out at 0.0182.
On to “CCGTTTGCATGGACCGGTTTTCCCGGTAATCCGTATTTGTG (site CCGTTGGCTCA)”, for which the “recombinant UMI read abundance (log10)” value was found to be 0.0153.
Then “CCGTTTGCATGGACCGGTTTTCCCGGTAATCCGTATTTGTG (site CCGTTTGCTCA)”, with 0; and “CCTAAAGCATGGACCGGTTTTCCCGGTAATCCGTATTTGAG (site CCTAAAGCTAT)”, with 0.
In the case of “CCTAAAGCATGGACCGGTTTTCCCGGTAATCCGTATTTGAG (site CCTAAAGCTCT)”, the “recombinant UMI read abundance (log10)” value was found to be 0.599.
For “CCTAAAGCATGGACCGGTTTTCCCGGTAATCCGTATTTGAG (site CCTAAAGCTGT)”, the “recombinant UMI read abundance (log10)” value was determined as 0.
On to “CCTAAAGCATGGACCGGTTTTCCCGGTAATCCGTATTTGAG (site CCTAAAGCTTT)”, for which the “recombinant UMI read abundance (log10)” value came to 0.
Then “CCTAAAGCATGGACCGGTTTTCCCGGTAATCCGTATTTGCT (site CCTAAAGCTAA)”, with 0.00467; and “CCTAAAGCATGGACCGGTTTTCCCGGTAATCCGTATTTGCT (site CCTAAAGCTAC)”, with 0; and “CCTAAAGCATGGACCGGTTTTCCCGGTAATCCGTATTTGCT (site CCTAAAGCTAG)”, with 0.
For the sequence “CCTAAAGCATGGACCGGTTTTCCCGGTAATCCGTATTTGCT (site CCTAAAGCTAT)”, the “recombinant UMI read abundance (log10)” value is 0.
Under “CCTAAATCATGGACCGGTTTTCCCGGTAATCCGTATTTGCA (site CCTAAATCTTG)” stands 0; under “CCTAAGTCATGGACCGGTTTTCCCGGTAATCCGTATTTGCA (site CCTAAGTCTTG)”, 0.
Then “CCTAATACATGGACCGGTTTTCCCGGTAATCCGTATTTGGT (site CCTAATACTAC)”, with 0; and “CCTAATACATGGACCGGTTTTCCCGGTAATCCGTATTTGGT (site CCTAATACTCC)”, with 0.0104.
For “CCTAATACATGGACCGGTTTTCCCGGTAATCCGTATTTGGT (site CCTAATACTGC)”, the “recombinant UMI read abundance (log10)” value turned out to be 0.
Under “CCTAATACATGGACCGGTTTTCCCGGTAATCCGTATTTGGT (site CCTAATACTTC)” stands 0.
